Results published in patent US10131644B2, “Aryl sultam derivatives as RORc modulators” (Genentech, Inc., priority 2014, dated 2018).

biological target: T1, RORc (Homo sapiens, UniProt P51449); experiment: In vitro RORc ligand binding assay (25-[3H]hydroxycholesterol displacement); conditions: IC50, IC50 values for RORc; unit inferred
T1 sequence (P51449 269-508 limits assumed): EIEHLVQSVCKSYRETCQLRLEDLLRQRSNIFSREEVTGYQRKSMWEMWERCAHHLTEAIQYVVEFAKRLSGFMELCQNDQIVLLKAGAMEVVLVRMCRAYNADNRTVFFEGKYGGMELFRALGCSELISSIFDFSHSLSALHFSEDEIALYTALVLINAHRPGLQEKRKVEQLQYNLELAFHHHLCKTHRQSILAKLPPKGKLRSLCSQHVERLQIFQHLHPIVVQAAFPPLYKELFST

Going from `C[C@H]1CC[C@H](c2ccccc2)S(=O)(=O)N1Cc1ccc(C2(C(=O)NCC(C)(C)O)CCOCC2)cc1F` [Compound 62, 4-[3-fluoro-4-[[(3S,6R)-3-methyl-1,1-dioxo-6-phenyl-thiazinan-2-yl]methyl]phenyl]-N-(2-hydroxy-2-methyl-propyl)tetrahydropyran-4-carboxamide] to `C[C@H]1CC[C@@H](c2ccccc2)S(=O)(=O)N1Cc1ccc(C2(C(=O)O)CCOCC2)cc1F` [Compound 45, 4-[3-Fluoro-4-((3S,6S)-3-methyl-1,1-dioxo-6-phenyl-[1,2]thiazinan-2-ylmethyl)-phenyl]-tetrahydro-pyran-4-carboxylic acid], the IC50 rises from 0.149 µM to 6.1 µM (41-fold).

Compared with `C[C@H]1CC[C@H](c2ccccc2)S(=O)(=O)N1Cc1ccc(C2([C@H](O)CO)CCOCC2)cc1F` [Compound 103, (1S)-1-[4-[3-fluoro-4-[[(3S,6R)-3-methyl-1,1-dioxo-6-phenyl-thiazinan-2-yl]methyl]phenyl]tetrahydropyran-4-yl]ethane-1,2-diol], `C[C@H]1CC[C@H](c2ccccc2)S(=O)(=O)N1Cc1ccc(C2(CCCO)CCOCC2)cc1F` [Compound 81, 3-[4-[3-fluoro-4-[[(3S,6R)-3-methyl-1,1-dioxo-6-phenyl-thiazinan-2-yl]methyl]phenyl]tetrahydropyran-4-yl]propan-1-ol] is 11-fold lower in IC50: 0.0689 µM for the first, 0.0062 µM for the second. The second is the more potent here.

`C[C@H]1CC[C@H](c2ccccc2)S(=O)(=O)N1Cc1cc(F)c(C2(CO)CCOCC2)cc1F` [Compound 101, [4-[2,5-difluoro-4-[[(3S,6R)-3-methyl-1,1-dioxo-6-phenyl-thiazinan-2-yl]methyl]phenyl]tetrahydropyran-4-yl]methanol] and `C[C@H]1CC[C@H](c2ccccc2)S(=O)(=O)N1Cc1cc(F)c(C2(OCC(N)=O)CCOCC2)cc1F` [Compound 150, 2-[4-[2,5-difluoro-4-[[(3S,6R)-3-methyl-1,1-dioxo-6-phenyl-thiazinan-2-yl]methyl]phenyl]tetrahydropyran-4-yl]oxyacetamide] are within 1.5-fold of each other in IC50: 0.009 µM for the first, 0.0061 µM for the second.

First: C[C@H]1CC[C@H](c2ccccc2)S(=O)(=O)N1Cc1ccc(C2(COCC(N)=O)CCOCC2)cc1F [Compound 121]
Second: CC(OC1(c2ccc(CN3[C@@H](C)CC[C@H](c4ccccc4)S3(=O)=O)c(F)c2)CCOCC1)C(N)=O (stereo partly drawn) [Compound 174, 2-[4-[3-fluoro-4-[[(3S,6R)-3-methyl-1,1-dioxo-6-phenyl-thiazinan-2-yl]methyl]phenyl]tetrahydropyran-4-yl]oxypropanamide]
The IC50 of the first is 2.4-fold lower: 0.016 µM for the first, 0.0379 µM for the second.

`C[C@H]1CC[C@H](c2ccccc2)S(=O)(=O)N1Cc1ccc(C2(CC#N)COC2)cc1F` [Compound 105, 2-[3-[3-fluoro-4-[[(3S,6R)-3-methyl-1,1-dioxo-6-phenyl-thiazinan-2-yl]methyl]phenyl]oxetan-3-yl]acetonitrile] and `C[C@H]1CC[C@H](c2ccccc2)S(=O)(=O)N1Cc1ccc(C2(CCC#N)COC2)cc1F` [Compound 159] are within 1.5-fold of each other in IC50: 0.0749 µM for the first, 0.0771 µM for the second.

Going from `C[C@H]1CC[C@H](c2ccccc2)S(=O)(=O)N1Cc1ccc([C@]2(CO)CC[C@@H](n3cnnc3)CC2)cc1F` [Compound 26, {1-[3-Fluoro-4-((3S,6R)-3-methyl-1,1-dioxo-6-phenyl-[1,2]thiazinan-2-ylmethyl)-phenyl]-4-[1,2,4]triazol-4-yl-cyclohexyl}-methanol] to `CNC(=O)[C@]1(c2ccc(CN3[C@@H](C)CC[C@H](c4ccccc4)S3(=O)=O)c(F)c2)CC[C@H](n2cnnc2)CC1` [Compound 43, 1-[3-Fluoro-4-((3S,6R)-3-methyl-1,1-dioxo-6-phenyl[1,2]thiazinan-2-ylmethyl)-phenyl]-4-[1,2,4]triazol-4-yl-cyclohexanecarboxylic acid methylamide], the IC50 rises from 0.032 µM to 0.096 µM (3-fold). The first is the more potent here.

First: C[C@H]1CC[C@H](c2ccccc2)S(=O)(=O)N1Cc1ccc(C2(CO)CCOCC2)cc1 [Compound 32, {4-[4-((3S,6R)-3-Methyl-1,1-dioxo-6-phenyl-[1,2]thiazinan-2-ylmethyl)-phenyl]-tetrahydro-pyran-4-yl}-methanol]
Second: C[C@H]1CC[C@H](c2ccccc2)S(=O)(=O)N1Cc1ccc(C2(C#N)CCOCC2)cc1 [Compound 30, 4-[4-((3S,6R)-3-Methyl-1,1-dioxo-6-phenyl-[1,2]thiazinan-2-ylmethyl)-phenyl]-tetrahydro-pyran-4-carbonitrile]
The IC50 of the first is 2.2-fold lower: 0.31 µM for the first, 0.68 µM for the second.

`CC(=O)N1CCC(OCC(=O)O)(c2cc(F)c(CN3[C@@H](C)CC[C@H](c4ccccc4)S3(=O)=O)cc2F)CC1` [Compound 137, 2-[[1-acetyl-4-[2,5-difluoro-4-[[(3S,6R)-3-methyl-1,1-dioxo-6-phenyl-thiazinan-2-yl]methyl]phenyl]-4-piperidyl]oxy]acetic acid] and `CC(=O)N1CC(OCC(=O)O)(c2cc(F)c(CN3[C@@H](C)CC[C@H](c4ccccc4)S3(=O)=O)cc2F)C1` [Compound 136, 2-[1-acetyl-3-[2,5-difluoro-4-[[(3S,6R)-3-methyl-1,1-dioxo-6-phenyl-thiazinan-2-yl]methyl]phenyl]azetidin-3-yl]oxyacetic acid] are within 1.5-fold of each other in IC50: 0.0179 µM for the first, 0.0172 µM for the second.

Compared with `C[C@H]1CC[C@H](c2ccccc2)S(=O)(=O)N1Cc1ccc(C2(NCC(=O)O)CCOCC2)cc1F` [Compound 164, 2-[[4-[3-fluoro-4-[[(3S,6R)-3-methyl-1,1-dioxo-6-phenyl-thiazinan-2-yl]methyl]phenyl]tetrahydropyran-4-yl]amino]acetic acid], `C[C@H]1CC[C@H](c2ccccc2)S(=O)(=O)N1Cc1ccc(C2(C(=O)NCCCN)CCOCC2)cc1F` [Compound 55, N-(3-aminopropyl)-4-[3-fluoro-4-[[(3S,6R)-3-methyl-1,1-dioxo-6-phenyl-thiazinan-2-yl]methyl]phenyl]tetrahydropyran-4-carboxamide] is 8.2-fold higher in IC50: 0.112 µM for the first, 0.913 µM for the second.

Compared with `C[C@H]1CC[C@H](c2ccccc2)S(=O)(=O)N1Cc1cc(F)c(C2(CCC(=O)N(C)C)CC2)cc1F` [Compound 147, 3-[1-[2,5-difluoro-4-[[(3S,6R)-3-methyl-1,1-dioxo-6-phenyl-thiazinan-2-yl]methyl]phenyl]cyclopropyl]-N,N-dimethyl-propanamide], `C[C@H]1CC[C@H](c2ccccc2)S(=O)(=O)N1Cc1cc(F)c(C2(C(N)=O)CC2)cc1F` [Compound 125, 1-[2,5-difluoro-4-[[(3S,6R)-3-methyl-1,1-dioxo-6-phenyl-thiazinan-2-yl]methyl]phenyl]cyclopropane-carboxamide] is 11-fold higher in IC50: 0.0325 µM for the first, 0.346 µM for the second.

`C[C@H]1CC[C@H](c2ccccc2)S(=O)(=O)N1Cc1ccc(C2(O)CCS(=O)(=O)CC2)cc1F` [Compound 42, (3S,6R)-2-(2-fluoro-4-(4-hydroxy-1,1-dioxidotetrahydro-2H-thiopyran-4-yl)benzyl)-3-methyl-6-phenyl-1,2-thiazinane 1,1-dioxide] and `C[C@H]1CC[C@H](c2ccccc2)S(=O)(=O)N1Cc1ccc([C@]2(C#N)C[C@@H](O)C2)cc1F` [Compound 179, 1-[3-fluoro-4-[[(3S,6R)-3-methyl-1,1 dioxo-6-phenyl-thiazinan-2-yl]methyl]phenyl]-3-hydroxy-cyclobutanecarbonitrile] are within 1.5-fold of each other in IC50: 0.19 µM for the first, 0.159 µM for the second.

Compared with `CC(=O)N[C@H]1CC[C@](C#N)(c2ccc(CN3[C@@H](C)CC[C@H](c4ccccc4)S3(=O)=O)c(F)c2)CC1` [Compound 34, N-{4-Cyano-4-[3-fluoro-4-((3S,6R)-3-methyl-1,1-dioxo-6-phenyl-[1,2]thiazinan-2-ylmethyl)-phenyl]-cyclohexyl}-acetamide], `CC(=O)N1CCC(C#N)(c2cc(F)c(CN3[C@@H](C)CC[C@H](c4ccccc4)S3(=O)=O)cc2F)CC1` [Compound 148, 1-acetyl-4-[2,5-difluoro-4-[[(3S,6R)-3-methyl-1,1-dioxo-6-phenyl-thiazinan-2-yl]methyl]phenyl]piperidine-4-carbonitrile] is 160-fold lower in IC50: 2.3 µM for the first, 0.0145 µM for the second.

Going from `CC(=O)N1CCC(OCC(O)CO)(c2cc(F)c(CN3[C@@H](C)CC[C@H](c4ccccc4)S3(=O)=O)cc2F)CC1` (stereo partly drawn) [Compound 144, 1-[4-[2,5-difluoro-4-[[(3S,6R)-3-methyl-1,1-dioxo-6-phenyl-thiazinan-2-yl]methyl]phenyl]-4-(2,3-dihydroxypropoxy)-1-piperidyl]ethanone] to `C[C@H]1CC[C@H](c2ccccc2)S(=O)(=O)N1Cc1cc(F)c(C2(NCC(N)=O)COC2)cc1F` [Compound 195, 2-[[3-[2,5-difluoro-4-[[(3S,6R)-3-methyl-1,1-dioxo-6-phenyl-thiazinan-yl]methyl]phenyl]oxetan-3-yl]amino]acetamide], the IC50 rises from 0.0216 µM to 0.035 µM (1.6-fold).

Compared with `COC(=O)C1(c2ccc(CN3[C@@H](C)CC[C@H](c4ccccc4)S3(=O)=O)cc2)CCOCC1` [Compound 27, 4-[4-((3S,6R)-3-Methyl-1,1-dioxo-6-phenyl-[1,2]thiazinan-2-ylmethyl)-phenyl]-tetrahydro-pyran-4-carboxylic acid methyl ester], `C[C@H]1CC[C@H](c2ccccc2)S(=O)(=O)N1Cc1ccc(C2(C(=O)N(C)C)CCOCC2)cc1` [Compound 35, 4-[4-((3S,6R)-3-Methyl-1,1-dioxo-6-phenyl-[1,2]thiazinan-2-ylmethyl)-phenyl]-tetrahydro-pyran-4-carboxylic acid dimethylamide] is 1.6-fold higher in IC50: 0.5 µM for the first, 0.82 µM for the second.

Compared with `C[C@H]1CC[C@H](c2ccccc2)S(=O)(=O)N1Cc1ccc(C2(OCC(N)=O)COC2)cc1F` [Compound 186, 2-[3-[3-fluoro-4-[[(3S,6R)-3-methyl-1,1-dioxo-6-phenyl-thiazinan-2-yl]methyl]phenyl]oxetan-3-yl]oxyacetamide], `COC1(OC)CC(C(N)=O)(c2ccc(CN3[C@@H](C)CC[C@H](c4ccccc4)S3(=O)=O)c(F)c2)C1` [Compound 181, 1-[3-fluoro-4-[[(3S,6R)-3-methyl-1,1-dioxo-6-phenyl-thiazinan-2-yl]methyl]phenyl]-3,3-dimethoxy-cyclobutanecarboxamide] is 3-fold higher in IC50: 0.008 µM for the first, 0.0237 µM for the second. The first is the more potent here.
